Experimental data published in patent US20160279187A1, “CALPAIN INHIBITORS FOR IBD AND COLORECTAL CANCER TREATMENT” (UNIVERSITY OF HAWAII, priority 2013, published 2016).
Where a SMILES comes first, the peptide text is derived from it. The star is where a group is joined. Cbz = O=C(OCc1ccccc1)*; CH2F = FC*

Target: T1, m-calpain (Homo sapiens, UniProt P17655)
T1 sequence (P17655 1-700): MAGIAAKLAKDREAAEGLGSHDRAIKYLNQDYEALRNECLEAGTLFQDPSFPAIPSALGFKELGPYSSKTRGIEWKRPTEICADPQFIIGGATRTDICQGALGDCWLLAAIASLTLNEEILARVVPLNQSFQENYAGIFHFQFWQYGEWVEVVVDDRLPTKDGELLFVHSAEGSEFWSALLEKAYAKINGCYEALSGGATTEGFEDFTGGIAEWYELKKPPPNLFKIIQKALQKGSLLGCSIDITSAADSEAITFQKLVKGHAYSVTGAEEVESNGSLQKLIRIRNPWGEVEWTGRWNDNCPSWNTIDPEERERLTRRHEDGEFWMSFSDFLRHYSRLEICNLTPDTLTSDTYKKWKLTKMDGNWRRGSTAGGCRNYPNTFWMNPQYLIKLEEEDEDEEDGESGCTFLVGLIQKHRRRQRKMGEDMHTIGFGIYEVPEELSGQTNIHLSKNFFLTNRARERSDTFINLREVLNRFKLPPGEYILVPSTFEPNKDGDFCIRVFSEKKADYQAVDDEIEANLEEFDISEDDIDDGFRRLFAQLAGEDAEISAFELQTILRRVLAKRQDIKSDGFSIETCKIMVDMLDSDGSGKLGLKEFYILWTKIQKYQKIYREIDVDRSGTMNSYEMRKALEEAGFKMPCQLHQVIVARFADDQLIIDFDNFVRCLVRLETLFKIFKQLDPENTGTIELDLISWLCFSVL
T1 sequence (P04632 1-268 partner): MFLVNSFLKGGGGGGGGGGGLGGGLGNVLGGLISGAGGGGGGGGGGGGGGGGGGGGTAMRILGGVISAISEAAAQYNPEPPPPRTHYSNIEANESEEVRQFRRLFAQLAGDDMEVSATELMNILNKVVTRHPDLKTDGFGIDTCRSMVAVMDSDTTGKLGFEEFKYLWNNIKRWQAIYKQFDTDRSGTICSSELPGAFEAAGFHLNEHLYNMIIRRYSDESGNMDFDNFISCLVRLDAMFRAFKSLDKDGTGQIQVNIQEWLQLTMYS
Assay: irreversible inhibition of m-calpain, k2 rate constant
Format: biochemical
Conditions: m-calpain / cathespin L, 28,900/680,000
Excerpt: In some aspects, the m-calpain selective inhibitor can be an irreversible inhibitor of m-calpain. The inhibition is made […] by the nucleophilic attack of the active cysteine in m-calpain to the electrophilic moeity of the m-calpain selective inhibitor to form a covalent bond (Moldoveanu, T.; Campbell, R. L.; Cuerrier, D.; Davies, P. L. J. Mol. Biol., 343, 1313-1326, 2004; Carragher, N. O., Curr. Pharm. Des., 12, 615-638, 2006). […] However, ZZ-LLY-CH2F can inhibit the off-target protein cathespin L with a rate constant k2 of 680,000 M^−1s^−1 (Li, Q.; Hanzlik, R. P.; Weaver, R. F.; Schoenbrunn, E., Biochemistry, 45:701-708, 2006). Thus, the ratio of inhibition rates k2 of the on-target m-calpain to an off-target protein can be around 28,900/680,000, or about 0.041. The ratio of inhibition rates k2 of the on-target m-calpain to an off-target protein can be greater than about 0.5, or greater than 0.1, or greater than 0.05, or greater than 0.01.

CC(C)C[C@H](NC(=O)OCc1ccccc1)C(=O)N[C@@H](CC(C)C)C(=O)N[C@@H](Cc1ccc(O)cc1)C(=O)CF [zLLY-CH2F, Z-LLY-CH2F] (Cbz-Leu-Leu-Tyr-CH2F)
ratio of inhibition rates k2 of on-target m-calpain to off-target protein: about 0.041
